Laboratory results as given in ChEMBL document CHEMBL4041506, “Urea-containing peptide boronic acids as potent proteasome inhibitors” (Eur J Med Chem, 2017).

Columns and labels:
[1] = tested on: Mus musculus; assay: Toxicity in human Bel7404 cells xenografted BALB/c mouse assessed as effect on body weight at 2 mg/kg, iv administered once in two days for 24 consecutive days measured on day 20 of compound dosing (reference value: 26.43 +/- 0.94 g); type: organism-based; conditions: in vivo
[2] = Plasma concentration in Sprague-Dawley rat at 3 mg/kg, iv administered as bolus measured at 4 hrs by LC/MS/MS analysis; type: ADME, organism-based
[3] = tested on: Mus musculus; assay: Toxicity in human Bel7404 cells xenografted BALB/c mouse assessed as effect on body weight at 0.5 mg/kg, iv administered once in two days for 24 consecutive days measured on day 6 of compound dosing (reference value: 25.65 +/- 0.70 g); type: organism-based; conditions: in vivo
[4] = tested on: Mus musculus; assay: Toxicity in human Bel7404 cells xenografted BALB/c mouse assessed as effect on body weight at 0.5 mg/kg, iv administered once in two days for 24 consecutive days measured on day 20 of compound dosing (reference value: 26.43 +/- 0.94 g); type: organism-based; conditions: in vivo
[5] = tested on: BEL-7404 tumor cell line; assay: Antitumor activity against human Bel7404 cells xenografted in BALB/c nude mouse assessed as effect on tumor volume at 2 mg/kg, iv administered once in two days for 24 consecutive days measured on day 17 of compound dosing relative to control; type: functional
[6] = MRT in Sprague-Dawley rat at 3 mg/kg, iv administered as bolus after 24 hrs by LC/MS/MS analysis; type: ADME, organism-based; conditions: in vivo
[7] = Plasma concentration in Sprague-Dawley rat at 3 mg/kg, iv administered as bolus measured at 1 hr by LC/MS/MS analysis; type: ADME, organism-based
[8] = Volume of distribution in Sprague-Dawley rat plasma at 3 mg/kg, iv administered as bolus after 24 hrs by LC/MS/MS analysis; type: ADME, organism-based
[9] = Plasma concentration in Sprague-Dawley rat at 3 mg/kg, iv administered as bolus measured at 0.5 hrs by LC/MS/MS analysis; type: ADME, organism-based
[10] = tested on: BEL-7404 tumor cell line; assay: Antitumor activity against human Bel7404 cells xenografted in BALB/c nude mouse assessed as effect on tumor volume at iv administered once in two days for 24 consecutive days measured on day 1 of compound dosing relative to control
[11] = tested on: Mus musculus; assay: Toxicity in human Bel7404 cells xenografted BALB/c mouse assessed as effect on body weight at 0.5 mg/kg, iv administered once in two days for 24 consecutive days measured on day 17 of compound dosing (reference value: 26.29 +/- 1.03 g); type: organism-based; conditions: in vivo
[12] = tested on: BEL-7404 tumor cell line; assay: Antitumor activity against human Bel7404 cells xenografted in BALB/c nude mouse assessed as effect on tumor volume at 0.5 mg/kg, iv administered once in two days for 24 consecutive days measured on day 24 of compound dosing relative to control; type: functional
[13] = Plasma concentration in Sprague-Dawley rat at 3 mg/kg, iv administered as bolus measured at […] by LC/MS/MS analysis; type: ADME, organism-based
[14] = tested on: BEL-7404 tumor cell line; assay: Antitumor activity against human Bel7404 cells xenografted in BALB/c nude mouse assessed as effect on tumor volume at 2 mg/kg, iv administered once in two days for 24 consecutive days measured on day 6 of compound dosing relative to control; type: functional
[15] = tested on: Mus musculus; assay: Toxicity in human Bel7404 cells xenografted BALB/c mouse assessed as effect on body weight at 2 mg/kg, iv administered once in two days for 24 consecutive days measured on day 24 of compound dosing (reference value: 26.29 +/- 1.36 g); type: organism-based; conditions: in vivo
[16] = AUClast in Sprague-Dawley rat plasma at 3 mg/kg, iv administered as bolus after 24 hrs by LC/MS/MS analysis; type: ADME, organism-based; set-up: dose 3 mg/kg, time < 24 hr, route intravenous
[17] = AUCinfinity in Sprague-Dawley rat at 3 mg/kg, iv administered as bolus after 24 hrs by LC/MS/MS analysis; type: ADME, organism-based; set-up: dose 3 mg/kg, time infinity, route intravenous; conditions: in vivo
[18] = tested on: Mus musculus; assay: Toxicity in human Bel7404 cells xenografted BALB/c mouse assessed as effect on body weight at 2 mg/kg, iv administered once in two days for 24 consecutive days measured on day 1 of compound dosing (reference value: 25.36 +/- 0.97 g); type: organism-based; conditions: in vivo
[19] = tested on: Mus musculus; assay: Toxicity in human Bel7404 cells xenografted BALB/c mouse assessed as effect on body weight at 0.5 mg/kg, iv administered once in two days for 24 consecutive days measured on day 24 of compound dosing (reference value: 26.29 +/- 1.36 g); type: organism-based; conditions: in vivo
[20] = tested on: BEL-7404 tumor cell line; assay: Antitumor activity against human Bel7404 cells xenografted in BALB/c nude mouse assessed as effect on tumor volume at 1 mg/kg, iv administered once in two days for 24 consecutive days measured on day 20 of compound dosing relative to control; type: functional
[21] = Plasma concentration in Sprague-Dawley rat at 3 mg/kg, iv administered as bolus measured at 0.083 hrs by LC/MS/MS analysis; type: ADME, organism-based
[22] = tested on: BEL-7404 tumor cell line; assay: Antitumor activity against human Bel7404 cells xenografted in BALB/c nude mouse assessed as effect on tumor volume at 2 mg/kg, iv administered once in two days for 24 consecutive days measured on day 3 of compound dosing relative to control; type: functional
[23] = tested on: BEL-7404 tumor cell line; assay: Antitumor activity against human Bel7404 cells xenografted in BALB/c nude mouse assessed as effect on tumor volume at 2 mg/kg, iv administered once in two days for 24 consecutive days measured on day 20 of compound dosing relative to control; type: functional
[24] = tested on: Mus musculus; assay: Toxicity in human Bel7404 cells xenografted BALB/c mouse assessed as effect on body weight at 1 mg/kg, iv administered once in two days for 24 consecutive days measured on day 20 of compound dosing (reference value: 26.43 +/- 0.94 g); type: organism-based; conditions: in vivo
[25] = tested on: BEL-7404 tumor cell line; assay: Antitumor activity against human Bel7404 cells xenografted in BALB/c nude mouse assessed as effect on tumor volume at 2 mg/kg, iv administered once in two days for 24 consecutive days measured on day 10 of compound dosing relative to control; type: functional
[26] = Plasma concentration in Sprague-Dawley rat at 3 mg/kg, iv administered as bolus measured at 0.0330 hrs by LC/MS/MS analysis; type: ADME, organism-based
[27] = tested on: Mus musculus; assay: Toxicity in human Bel7404 cells xenografted BALB/c mouse assessed as effect on body weight at 1 mg/kg, iv administered once in two days for 24 consecutive days measured on day 1 of compound dosing (reference value: 25.36 +/- 0.97 g); type: organism-based; conditions: in vivo
[28] = tested on: Mus musculus; assay: Toxicity in human Bel7404 cells xenografted BALB/c mouse assessed as effect on body weight at 2 mg/kg, iv administered once in two days for 24 consecutive days measured on day 6 of compound dosing (reference value: 25.65 +/- 0.7 g); type: organism-based; conditions: in vivo
[29] = Plasma concentration in Sprague-Dawley rat at 3 mg/kg, iv administered as bolus measured at 2 hrs by LC/MS/MS analysis; type: ADME, organism-based
[30] = Half life in Sprague-Dawley rat at 3 mg/kg, iv administered as bolus after 24 hrs by LC/MS/MS analysis; type: ADME, organism-based; conditions: in vivo
[31] = tested on: BEL-7404 tumor cell line; assay: Antitumor activity against human Bel7404 cells xenografted in BALB/c nude mouse assessed as effect on tumor volume at 0.5 mg/kg, iv administered once in two days for 24 consecutive days measured on day 17 of compound dosing relative to control; type: functional

CC(C)C[C@H](NC(=O)[C@H](Cc1ccccc1)NC(=O)N1CCc2ccccc2C1)B(O)O
Activity [1]: 22.17 g
concentration at 4 h [2]: 17.5 ng/mL
Activity [3]: 24.3 g
Activity [4]: 24.58 g
fold change (FC) [5]: 3.2
MRT [6]: 1.2 h
concentration at 1 h [7]: 149 ng/mL
Vd [8]: 9.44 L/kg
concentration at 0.5 h [9]: 373 ng/mL
fold change (FC) [10]: 1
Activity [11]: 24.22 g
fold change (FC) [12]: 5.48
concentration at […] [13]: 715 ng/mL
fold change (FC) [14]: 1.56
Activity [15]: 22.68 g
AUC(0-t) at 24 h [16]: 878 ng·h/mL
AUC(0-inf) [17]: 907 ng·h/mL
Activity [18]: 24.72 g
Activity [19]: 25.15 g
fold change (FC) [20]: 4.08
concentration at 0.083 h [21]: 1350 ng/mL
fold change (FC) [22]: 1.31
fold change (FC) [23]: 3.7
Activity [24]: 25.1 g
fold change (FC) [25]: 2.17
concentration at 0.033 h [26]: 2610 ng/mL
Activity [27]: 25.12 g
Activity [28]: 24.97 g
concentration at 2 h [29]: 55.1 ng/mL
half-life [30]: 1.96 h
fold change (FC) [31]: 3.76
